Test results: patent US20250230155A1 (Vanderbilt University, priority 2021, published 2025)
Where two headings read alike, the source gives them in different places.

Molecular target: T1, human mAChR M4 (Homo sapiens, UniProt P08173)
T1 construct: expressed in transfected cells
T1 sequence (P08173 1-479): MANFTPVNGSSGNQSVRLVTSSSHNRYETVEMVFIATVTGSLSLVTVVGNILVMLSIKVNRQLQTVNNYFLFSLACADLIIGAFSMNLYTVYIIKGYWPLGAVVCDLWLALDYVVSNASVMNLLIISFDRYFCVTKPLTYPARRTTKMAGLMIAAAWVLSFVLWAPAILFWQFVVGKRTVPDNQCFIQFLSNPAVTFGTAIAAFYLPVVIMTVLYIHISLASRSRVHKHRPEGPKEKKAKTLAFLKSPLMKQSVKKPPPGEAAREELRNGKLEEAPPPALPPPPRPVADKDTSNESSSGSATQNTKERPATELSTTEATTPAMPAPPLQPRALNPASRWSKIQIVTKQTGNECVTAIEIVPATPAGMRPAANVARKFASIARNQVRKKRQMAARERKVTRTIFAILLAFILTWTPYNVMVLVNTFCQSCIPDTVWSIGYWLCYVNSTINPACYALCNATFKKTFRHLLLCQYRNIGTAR
Assay: mAChR M4 cell-based functional assay (calcium mobilization, CHO-K1 hM4-Gqi5 cells)
Settings: for Emax: CHO-K1; for EC50: increase in the EC20 acetylcholine response, CHO-K1 hM4-Gqi5 cells; for Emax at 30 µM: CHO-K1, % ACh maximum at 30 μM, human M4
In short: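 Fluorescent calcium read-out (Fluo-4 AM, FDSS, 1 Hz) in hM4-Gqi5 CHO-K1 cells, 11-point 1:3 compound series. Agonism scored on compound addition, PAM activity as increase of the 144 s EC20 acetylcholine response, antagonism as decrease of the 230 s EC80 response; four-parameter logistic fits give EC50 and Emax.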

[1] = positive allosteric modulator activity, read-out: Human M4 EC50

Structure (SMILES) | Emax | EC50 (Human M4 EC50, positive allosteric modulator activity) | Emax at 30 µM | EC50 [1]
Cc1nc(Cl)c(C)c(N2CCc3ncc(C4CC4)cc3C2)n1 [compound 225, 6-(6-chloro-2,5-dimethylpyrimidin-4-yl)-3-cyclopropyl-5,6,7,8-tetrahydro-1,6-naphthyridine] | 87% | 57 nM |  | 
Cc1cnccc1CNC(=O)c1cnc(N2CCc3ncc(Nc4ccnn4C)cc3C2)c(C)c1 [Example 474, 5-methyl-6-(3-((1-methyl-1H-pyrazol-5-yl)amino)-7,8-dihydro-1,6-naphthyridin-6(5H)-yl)-N-((3-methylpyridin-4-yl)methyl)nicotinamide] |  |  | 89% | 206 nM
Cc1cc(C(=O)NCC2CCOCC2)cnc1N1CCc2ncc(-c3cn(C)nc3C)cc2C1 [Example 459, 6-(3-(1,3-dimethyl-1H-pyrazol-4-yl)-7,8-dihydro-1,6-naphthyridin-6(5H)-yl)-5-methyl-N-((tetrahydro-2H-pyran-4-yl)methyl)nicotinamide] |  |  | 71% | 1190 nM
Cc1cc(C(=O)NC2CN(CC(F)(F)F)C2)nnc1N1CCc2ncc(N3CCCn4nccc43)cc2C1 [Example 520, 6-(3-(6,7-dihydropyrazolo[1,5-a]pyrimidin-4(5H)-yl)-7,8-dihydro-1,6-naphthyridin-6(5H)-yl)-5-methyl-N-(1-(2,2,2-trifluoroethyl)azetidin-3-yl)pyridazine-3-carboxamide] |  |  | 104% | 43 nM
Cc1nc(Cl)c(C)c(N2CCc3ncc(-c4ccc(F)nc4)cc3C2)n1 [compound 224, 6-(6-chloro-2,5-dimethylpyrimidin-4-yl)-3-(6-fluoropyridin-3-yl)-5,6,7,8-tetrahydro-1,6-naphthyridine] |  |  | 82% | 214 nM
Cc1nn(C)cc1-c1cnc2c(c1)CN(c1nc(N3CCOCC3)nc(C)c1C)CC2 [compound 270, 4-(4-(3-(1,3-dimethyl-1H-pyrazol-4-yl)-7,8-dihydro-1,6-naphthyridin-6(5H)-yl)-5,6-dimethylpyrimidin-2-yl)morpholine] |  |  | 70% | 896 nM
Cc1cc(C(=O)N2CC3(C2)CC(F)(F)C3)nnc1N1CCc2ncc(N3CCCn4nccc43)cc2C1 [Example 555, (6,6-difluoro-2-azaspiro[3.3]heptan-2-yl)(6-(3-(6,7-dihydropyrazolo[1,5-a]pyrimidin-4(5H)-yl)-7,8-dihydro-1,6-naphthyridin-6(5H)-yl)-5-methylpyridazin-3-yl)methanone] |  |  | 83% | 48 nM
Cc1cc(C(=O)Nc2ccncc2)cnc1N1CCc2ncc(-c3cn(C)nc3C)cc2C1 [Example 450, 6-(3-(1,3-dimethyl-1H-pyrazol-4-yl)-7,8-dihydro-1,6-naphthyridin-6(5H)-yl)-5-methyl-N-(pyridin-4-yl)nicotinamide] |  |  | 71% | 215 nM
Cc1c(Cl)nc(C2CC2)nc1N1CCc2ncc(Nc3cccc(F)c3F)cc2C1 [compound 91, 6-(6-chloro-2-cyclopropyl-5-methyl-pyrimidin-4-yl)-N-(2,3-difluorophenyl)-7,8-dihydro-5H-1,6-naphthyridin-3-amine] |  |  | 67% | 5570 nM
Cc1ccc(Nc2cnc3c(c2)CN(c2ncc(C#N)cc2C)CC3)c(F)n1 [compound 132, 6-[3-[(2-fluoro-6-methyl-3-pyridyl)amino]-7,8-dihydro-5H-1,6-naphthyridin-6-yl]-5-methyl-pyridine-3-carbonitrile] |  |  | 96% | 234 nM
FC(F)(F)c1cnc2c(c1)CN(c1nc(C3CC3)nc3c1CCCC3)CC2 [compound 266, 2-cyclopropyl-4-(3-(trifluoromethyl)-7,8-dihydro-1,6-naphthyridin-6(5H)-yl)-5,6,7,8-tetrahydroquinazoline] |  |  | 38% | 4570 nM
Cc1cnc2c(c1)CN(c1nnc(C(=O)NCc3cnc4ccccc4c3)c(C)c1C)CC2 [Example 471, 4,5-dimethyl-6-(3-methyl-7,8-dihydro-1,6-naphthyridin-6(5H)-yl)-N-(quinolin-3-ylmethyl)pyridazine-3-carboxamide] |  |  | 91% | 251 nM
Cc1cc(C#N)cnc1N1CCc2ncc(Nc3cccnc3F)cc2C1 [compound 166, 6-[3-[(2-fluoro-3-pyridyl)amino]-7,8-dihydro-5H-1,6-naphthyridin-6-yl]-5-methyl-pyridine-3-carbonitrile] | 106% |  |  | 45.1 nM
Cc1cc(C#N)cnc1N1CCc2ncc(Br)cc2C1 [Example 594, 6-(3-bromo-7,8-dihydro-1,6-naphthyridin-6(5H)-yl)-5-methylnicotinonitrile] | 84% |  |  | 132 nM
Cc1cc(C(=O)N2CC(c3cccnc3)C2)nnc1N1CCc2ncc(N3CCO[C@H](C)C3)cc2C1 [Example 541, (R)-(5-methyl-6-(3-(2-methylmorpholino)-7,8-dihydro-1,6-naphthyridin-6(5H)-yl)pyridazin-3-yl)(3-(pyridin-3-yl)azetidin-1-yl)methanone] |  |  | 101% | 61 nM
Clc1nc2c(c(N3CCc4ncc(N5CCCn6nccc65)cc4C3)n1)COC2 [compound 282, 2-chloro-4-(3-(6,7-dihydropyrazolo[1,5-a]pyrimidin-4(5H)-yl)-7,8-dihydro-1,6-naphthyridin-6(5H)-yl)-5,7-dihydrofuro[3,4-d]pyrimidine] |  |  |  | 302 nM
Cc1nc(NC2CCOC2)nc(N2CCc3ncc(Nc4ccnn4C)cc3C2)c1C (stereo not shown) [compound 279, 6-(5,6-dimethyl-2-((tetrahydrofuran-3-yl)amino)pyrimidin-4-yl)-N-(1-methyl-1H-pyrazol-5-yl)-5,6,7,8-tetrahydro-1,6-naphthyridin-3-amine] |  |  | 103% | 191 nM
Cc1cc(C#N)cnc1N1CCc2ncc(N3CCN(C)CC3=O)cc2C1 [Example 420, 5-methyl-6-(3-(4-methyl-2-oxopiperazin-1-yl)-7,8-dihydro-1,6-naphthyridin-6(5H)-yl)nicotinonitrile] |  |  | 43% | ≥ 10000 nM
Cc1c(C#N)nnc(N2CCc3ncc(-c4cnn(C(F)F)c4)cc3C2)c1C [Example 326, 6-(3-(1-(difluoromethyl)-1H-pyrazol-4-yl)-7,8-dihydro-1,6-naphthyridin-6(5H)-yl)-4,5-dimethylpyridazine-3-carbonitrile] |  |  | 68% | 611 nM
COc1ccc(-c2cnc3c(c2)CN(c2nnc(C#N)c(C)c2C)CC3)cn1 [Example 299, 6-(3-(6-methoxypyridin-3-yl)-7,8-dihydro-1,6-naphthyridin-6(5H)-yl)-4,5-dimethylpyridazine-3-carbonitrile] |  |  | 64% | 178 nM
Cc1cc(C(=O)N2CC(F)C2)nnc1N1CCc2ncc(CC(F)(F)F)cc2C1 [Example 586, (3-fluoroazetidin-1-yl)(5-methyl-6-(3-(2,2,2-trifluoroethyl)-7,8-dihydro-1,6-naphthyridin-6(5H)-yl)pyridazin-3-yl)methanone] |  |  | 99% | 176 nM
Cc1cnccc1-c1cnc2c(c1)CN(c1nnc(C#N)c(C)c1C)CC2 [compound 77, 4,5-dimethyl-6-[3-(3-methyl-4-pyridyl)-7,8-dihydro-5H-1,6-naphthyridin-6-yl]pyridazine-3-carbonitrile] |  |  | 89% | 198 nM
Cc1nc(Cl)c(C)c(N2CCc3nc(C(F)(F)F)ccc3C2)n1 [compound 218, 6-(6-chloro-2,5-dimethylpyrimidin-4-yl)-2-(trifluoromethyl)-5,6,7,8-tetrahydro-1,6-naphthyridine] |  |  | 83% | 759 nM
Cc1c(C(=O)NCc2ccccn2)nnc(N2CCc3ncccc3C2)c1C [compound 137, 6-(7,8-dihydro-5H-1,6-naphthyridin-6-yl)-4,5-dimethyl-N-(2-pyridylmethyl)pyridazine-3-carboxamide] |  |  | 91% | 3380 nM
Cc1nc(Cl)c(C)c(N2CCc3ncc(-c4c(C)nn(C)c4C)cc3C2)n1 [compound 193, 6-(6-chloro-2,5-dimethyl-pyrimidin-4-yl)-3-(1,3,5-trimethylpyrazol-4-yl)-7,8-dihydro-5H-1,6-naphthyridine] |  |  | 82% | 605 nM
Cc1cc(C(=O)NC2CC3(COC3)C2)cnc1N1CCc2ncc(-c3cn(C)nc3C)cc2C1 [Example 475, 6-(3-(1,3-dimethyl-1H-pyrazol-4-yl)-7,8-dihydro-1,6-naphthyridin-6(5H)-yl)-5-methyl-N-(2-oxaspiro[3.3]heptan-6-yl)nicotinamide] |  |  | 64% | 1740 nM
Cc1cc(C(=O)NCc2nccs2)cnc1N1CCc2ncc(-c3cnn(C)c3)cc2C1 [compound 173, 5-methyl-6-[3-(1-methylpyrazol-4-yl)-7,8-dihydro-5H-1,6-naphthyridin-6-yl]-N-(thiazol-2-ylmethyl)pyridine-3-carboxamide] |  |  | 95% | 77.3 nM
Cc1nc(Cl)c(C)c(N2CCc3ncc(-c4cnn(C5CCC5)c4)cc3C2)n1 [compound 195, 6-(6-chloro-2,5-dimethyl-pyrimidin-4-yl)-3-(1-cyclobutylpyrazol-4-yl)-7,8-dihydro-5H-1,6-naphthyridine] |  |  | 80% | 611 nM
